Patent publication US5587475A, “Derivatized virginiamycin M1” (University of Notre Dame, priority 1995, dated 1996)

What was measured:
Micrococcus luteus = experiment: in vivo activity, M.I.C. on M. luteus (VM1 derivatives alone, without VS1); type: cell-based; design: key: (+) indicates multiplication of bacteria; conditions: M. luteus in LBroth, 18 h at 37° C. with shaking
Method: The synthesized derivatives of the present invention have been tested for antibacterial activity (in solid and liquid medium), ribosome binding affinity and synergistic activity with virginiamycin S. The tests for biological activity were carried out both in vivo and in vitro. The in vivo tests were carried out using Micrococcus luteus as the test organism with the VM1 derivatives alone (without VS1). Minimum inhibitory concentrations (MIC values) were determined on agar broth plates by standard microbiological procedures, with a range of concentrations of the VM derivatives applied to the plates. The in vitro tests of the VM derivatives were performed together with VS1, and took advantage of the unique fluorescence (F) inherent in VS1. The results are summarized in the following tables, wherein the activities are compared to virginiamycin (VM1). | M. luteus in LBroth, 18 h at 37° C. with shaking. | M. luteus in LBroth, 18 h at 37° C. with shaking.

ribosomes = experiment: in vitro activity: binding to free ribosomes, VS1 fluorescence with erythromycin displacement; design: key to kobs (symbol): (*) too small to be measured. t/2 is very large; conditions: together with VS1, fluorescence
Method: The in vivo tests were carried out using Micrococcus luteus as the test organism with the VM1 derivatives alone (without VS1). Minimum inhibitory concentrations (MIC values) were determined on agar broth plates by standard microbiological procedures, with a range of concentrations of the VM derivatives applied to the plates. The in vitro tests of the VM derivatives were performed together with VS1, and took advantage of the unique fluorescence (F) inherent in VS1. […] Using spectrofluorometry, an increase in fluorescence can be measured when ribosomes are added to a VS1 solution. Erythromycin is known to bind at the same position on the ribosome (50-S subunit) as VS1, and when it is added to the VS1 /ribosomal mixture, a decrease in fluorescence is seen. If VM1 is added to the VS1 /ribosomal/erythromycin mixture, an increase in fluorescence can be measured. Presumably, a conformational change of the ribosomes occurs upon binding of VM1, which allows VS1 to bind preferentially and releases erythromycin from the ribosomes. The VM1 derivatives would also display this type of behavior if they bind to the ribosomes.

[1] = in vitro Activity of VM1-Ester Derivatives
[2] = in vitro Activity of VM1-Carboxylic Acid Derivatives

Compound | in vivo Activity of VM1-Ester Derivatives, M.I.C. on M. luteus (multiplication of bacteria) (Micrococcus luteus; Concentration 0.0625 μg/mL) | in vivo Activity of VM1-Ester Derivatives, M.I.C. on M. luteus (multiplication of bacteria) (Micrococcus luteus; Concentration 0.125 μg/mL) | in vivo Activity of VM1-Ester Derivatives, M.I.C. on M. luteus (multiplication of bacteria) (Micrococcus luteus; Concentration 0.25 μg/mL) | in vivo Activity of VM1-Ester Derivatives, M.I.C. on M. luteus (multiplication of bacteria) (Micrococcus luteus; Concentration 0.5 μg/mL) | in vivo Activity of VM1-Ester Derivatives, M.I.C. on M. luteus (multiplication of bacteria) (Micrococcus luteus; Concentration 1 μg/mL) | in vivo Activity of VM1-Ester Derivatives, M.I.C. on M. luteus (multiplication of bacteria) (Micrococcus luteus; Concentration 2 μg/mL) | in vivo Activity of VM1-Ester Derivatives, M.I.C. on M. luteus (multiplication of bacteria) (Micrococcus luteus; Concentration 4 μg/mL) | in vivo Activity of VM1-Ester Derivatives, M.I.C. on M. luteus (multiplication of bacteria) (Micrococcus luteus; Concentration 8 μg/mL) | kobs (symbol) (ribosomes; [1]) | in vivo Acitivity of VM1-Carboxylic Derivatives, M.I.C. on M. luteus (multiplication of bacteria) (Micrococcus luteus; Concentration 0.0625 μg/mL) | kobs (ribosomes; [2]) | t/2 (ribosomes; [2]) | kobs (ribosomes; [1]) | t/2 (ribosomes; [1])
CC1=C\[C@@H](O)CC(=O)Cc2nc(co2)C(=O)N2CC[C@H](SCCCCC(=O)OCC(Cl)(Cl)Cl)[C@H]2C(=O)O[C@H](C(C)C)[C@H](C)/C=C/C(=O)NC\C=C\1 [Ester c S,R] | + | + | + | + | + | + | + | + | * | – | – | – | – | –
CC1=C\[C@@H](O)CC(=O)Cc2nc(co2)C(=O)N2CCC=C2C(=O)O[C@H](C(C)C)[C@H](C)/C=C/C(=O)NC\C=C\1 [VM1, virginiamycin M1] | + | – | – | – | – | – | – | – | – | + | 0.068 s⁻¹ | 10.2 s | 0.068 s⁻¹ | 10.2 s
